According to US11352606B2, “Low oxygen tension enhances endothelial fate of human pluripotent stem cells” (THE JOHNS HOPKINS UNIVERSITY, priority 2014, dated 2022):

System: VEcad and CD31 mRNA expression in EVCs
Conditions: DPI days 3-6, 5% O2, after 12 days
Method: Real-time quantitative RT-PCR. Two-step reverse transcription polymerase chain reaction (RT-PCR) was performed on differentiated and undifferentiated (day 0) hPSCs as previously described in accordance with Applied Biosystems manufacturer instructions (Kusuma et al., The FASEB Journal. 2012; 26:4925-4936). For each primer set (CD34, KDR, CD56, VEcad, CD31, ephrinB2, EphB4, Nrp1, Nrp2), the comparative […] method (Applied Biosystems, Foster City, Calif.) was used to calculate the amplification differences between different samples. The values for experiments were averaged and graphed with standard deviations.
ROS detection and inhibition. Previously published protocols were followed to detect and inhibit ROS production (Abaci et al., American Journal of Physiology—Cell Physiology. 2011; 301:C431-C440). For ROS detection, the culture media was replaced with 10 μM 2′,7′-dichlorodihydrofluorescein diacetate (H2-DCFDA) (Invitrogen) in PBS and incubated for 30 min at 37° C. Samples were washed with PBS three times prior to imaging. For ROS inhibition, cells were treated with diphenyleneiodonium (DPI) (Sigma-Aldrich) at a concentration of 10 μM.
DPI-treated cells were maintained in 5% O2 conditions for the second six days of differentiation but without DPI.

[1] = RT-PCR normalized to control (atmospheric) EVCs

For `c1ccc2c(c1)[I+]c1ccccc1-2` [DPI, diphenyleneiodonium], the “CD31 expression compared to EVCs differentiated in 5% O2 without DPI” value was “significantly lower”, the “VEcad expression compared to EVCs differentiated in 5% O2 without DPI” value was “significantly lower” and the “expression of CD31 compared to control EVCs” value [1] was “lower”. The “expression of VEcad compared to control EVCs” value [1] was “similar”.
